A value given as a limit tells only on which side of the number the result lay.

Among the data in US20100216779A1 (GLAXOSMITHKLINE LLC, priority 2007, published 2010) are IC50 values, retold here.

Holding throughout (type): cell-based
The subject of one assay is COLO205 (colon). The experiment in a line: Inhibition of cell proliferation, CellTiter-Glo, COLO205. Particulars: Homo sapiens, COLO 205, 72 h. As to the method:
C. Inhibition of Cell Proliferation
Cell proliferation was measured by either CellTiter-Glo (measures cellular ATP level as a surrogate for total cell number) or by InCell analyzer (counts number of nuclei as a measure of cell number). For CellTiter-Glo assay, exponentially growing cell lines of different tumor origins, cultured in appropriate media containing 10% fetal bovine serum at 37° C. in a 5% CO2 incubator, were plated at low density (less than 2000 cells/well) in 96-well plates. […] Several wells were left untreated as a control. Seventy two hours post-treatment, cell numbers were determined using 50-100 ul per well of CellTiter-Glo (Promega #G7573). Plates were incubated at 37° C. for 30 minutes and the chemiluminescent signal was read on the Victor V or Envison 2100 reader. […]

In assay [1] the target is T1, human IGF-1R (NIH-3T3 cells over expressing human IGF-1R) (Homo sapiens, UniProt P08069).
T1 construct: expressed in transfected cells; host or cells: NIH-3T3 (mouse fibroblasts)
The experiment in a line: IGF-1R cellular autophosphorylation (DELFIA). Conditions: IGF-1 stimulated. Here is the method:
(§1) D. IGF-1R and IR Cellular Autophosphorylation (DELFIA)
(§2) NIH-3T3 cells over expressing human IGF-1R or IR were plated in 96-well plates (10,000 cells/well) in culture media containing 10% fetal bovine serum and incubated at 37° C. in a 5% CO2 incubator. Twenty four hours post-plating, cells were treated with different concentrations of test compounds ranging from 30 uM to 1.5 nM. Two hours after compound addition, cells were stimulated with either human IGF-1 (30 ng/mL) or insulin (3 ug/mL) for 15 minutes. Cell lysates are analyzed for phosphorylated receptors using dissociation enhanced lanthanide fluor-immuno assay (DELFIA) with anti-IGF-1R (MAB391, R&D Systems, Minneapolis, Minn.) or anti-IR[…](sc-711, Santa Cruz Biotechnology, Santa Cruz, Calif.) capture antibody and europium-labeled anti-pTyr antibody (Eu-N1 PT66, Perkin Elmer, Waltham, Mass.) for detection. The fluorescence signal for cells treated with compounds was expressed as percent relative to 100% stimulation (IGF-1 or insulin stimulated signal). […]

The target in assay [2] is T2, IR (NIH-3T3 cells over expressing human IGF-1R or IR) (Homo sapiens, UniProt P06213).
T2 construct: expressed in transfected cells; host or cells: NIH-3T3 (mouse fibroblasts)
Description: IR cellular autophosphorylation (DELFIA). Conditions: NIH-3T3 cells over expressing IR, insulin stimulated. As to the method:
as §1, §2

T1 sequence (P08069 31-1367): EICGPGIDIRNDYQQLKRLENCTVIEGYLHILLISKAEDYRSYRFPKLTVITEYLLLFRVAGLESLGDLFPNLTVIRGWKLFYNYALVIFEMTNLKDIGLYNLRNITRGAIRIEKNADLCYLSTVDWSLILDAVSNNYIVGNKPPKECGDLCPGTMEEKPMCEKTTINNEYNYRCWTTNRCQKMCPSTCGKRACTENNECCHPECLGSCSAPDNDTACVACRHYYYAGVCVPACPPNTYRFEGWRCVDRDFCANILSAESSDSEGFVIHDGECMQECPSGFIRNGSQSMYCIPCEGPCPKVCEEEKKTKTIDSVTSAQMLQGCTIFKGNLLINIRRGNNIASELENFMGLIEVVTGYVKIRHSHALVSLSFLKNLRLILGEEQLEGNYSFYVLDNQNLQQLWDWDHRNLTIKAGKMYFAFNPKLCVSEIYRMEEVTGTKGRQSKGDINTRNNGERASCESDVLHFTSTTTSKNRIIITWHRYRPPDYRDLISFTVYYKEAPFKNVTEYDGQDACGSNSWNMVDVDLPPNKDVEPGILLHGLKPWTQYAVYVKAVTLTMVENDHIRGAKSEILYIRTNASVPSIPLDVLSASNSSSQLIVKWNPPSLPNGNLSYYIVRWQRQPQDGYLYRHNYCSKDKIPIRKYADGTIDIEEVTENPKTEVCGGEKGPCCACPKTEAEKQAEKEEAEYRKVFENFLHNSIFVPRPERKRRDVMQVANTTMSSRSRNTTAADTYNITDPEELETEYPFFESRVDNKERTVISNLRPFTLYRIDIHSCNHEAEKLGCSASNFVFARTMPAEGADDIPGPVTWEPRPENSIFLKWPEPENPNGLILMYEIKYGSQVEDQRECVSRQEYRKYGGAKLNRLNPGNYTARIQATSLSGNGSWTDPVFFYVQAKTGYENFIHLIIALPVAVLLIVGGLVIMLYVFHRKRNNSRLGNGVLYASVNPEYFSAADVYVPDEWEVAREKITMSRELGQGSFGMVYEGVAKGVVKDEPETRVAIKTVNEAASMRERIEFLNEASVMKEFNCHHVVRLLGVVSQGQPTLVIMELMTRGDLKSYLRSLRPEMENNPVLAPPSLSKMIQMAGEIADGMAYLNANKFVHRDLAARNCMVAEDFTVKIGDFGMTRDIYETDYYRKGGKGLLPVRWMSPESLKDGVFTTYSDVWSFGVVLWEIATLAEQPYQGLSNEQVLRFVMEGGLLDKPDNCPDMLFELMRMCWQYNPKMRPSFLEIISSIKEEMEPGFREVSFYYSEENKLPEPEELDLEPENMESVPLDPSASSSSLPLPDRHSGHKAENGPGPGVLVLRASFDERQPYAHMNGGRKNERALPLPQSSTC
T2 sequence (P06213 28-1382): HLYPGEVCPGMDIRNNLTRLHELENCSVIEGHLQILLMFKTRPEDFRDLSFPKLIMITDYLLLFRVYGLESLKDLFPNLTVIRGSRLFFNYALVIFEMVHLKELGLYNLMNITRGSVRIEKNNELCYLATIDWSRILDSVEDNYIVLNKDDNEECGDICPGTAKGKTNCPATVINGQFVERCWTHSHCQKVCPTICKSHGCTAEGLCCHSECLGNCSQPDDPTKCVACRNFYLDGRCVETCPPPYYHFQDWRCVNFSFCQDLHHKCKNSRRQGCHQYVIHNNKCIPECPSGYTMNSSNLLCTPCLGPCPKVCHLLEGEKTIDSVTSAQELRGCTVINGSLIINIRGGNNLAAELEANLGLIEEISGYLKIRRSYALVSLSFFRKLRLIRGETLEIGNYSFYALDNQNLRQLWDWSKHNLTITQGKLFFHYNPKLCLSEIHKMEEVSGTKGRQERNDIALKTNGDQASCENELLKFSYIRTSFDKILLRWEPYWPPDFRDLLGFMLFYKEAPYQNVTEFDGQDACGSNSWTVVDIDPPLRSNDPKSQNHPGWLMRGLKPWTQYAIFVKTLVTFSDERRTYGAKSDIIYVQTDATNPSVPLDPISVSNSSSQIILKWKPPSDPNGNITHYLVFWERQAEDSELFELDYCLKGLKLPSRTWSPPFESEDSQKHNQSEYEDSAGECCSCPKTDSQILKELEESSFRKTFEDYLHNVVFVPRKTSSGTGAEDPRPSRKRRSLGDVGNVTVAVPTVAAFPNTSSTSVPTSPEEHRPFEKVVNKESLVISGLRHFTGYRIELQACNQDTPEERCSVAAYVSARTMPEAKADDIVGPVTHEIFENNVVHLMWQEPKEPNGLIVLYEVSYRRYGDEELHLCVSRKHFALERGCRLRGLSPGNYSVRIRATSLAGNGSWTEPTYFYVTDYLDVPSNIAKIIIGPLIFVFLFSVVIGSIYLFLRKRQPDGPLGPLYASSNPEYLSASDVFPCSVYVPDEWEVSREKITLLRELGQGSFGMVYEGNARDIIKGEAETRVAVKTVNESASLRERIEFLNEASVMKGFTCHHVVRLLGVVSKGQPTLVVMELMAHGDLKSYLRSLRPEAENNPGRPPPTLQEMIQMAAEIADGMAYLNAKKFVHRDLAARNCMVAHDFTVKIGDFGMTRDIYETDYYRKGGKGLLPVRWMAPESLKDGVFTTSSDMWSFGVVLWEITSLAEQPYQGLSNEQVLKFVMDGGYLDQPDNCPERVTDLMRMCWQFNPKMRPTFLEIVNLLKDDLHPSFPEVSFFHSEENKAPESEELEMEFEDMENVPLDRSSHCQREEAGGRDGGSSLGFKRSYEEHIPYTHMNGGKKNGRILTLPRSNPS

`COc1cc(CCCN2CCCCC2)ccc1Nc1nccc(-c2c(-c3cccc(C(=O)Nc4c(F)cccc4F)c3)nc3ccccn23)n1` [Example 139, N-(2,6-difluorophenyl)-3-{3-[2-({2-(methyloxy)-4-[3-(1-piperidinyl)propyl]phenyl}amino)-4-pyrimidinyl]imidazo[1,2-a]pyridin-2-yl}benzamide]: the values for the IC50 (in the assay on COLO205 (colon); in assay [1]; in assay [2]) were 250 to 1000 nM, less than 100 nM and 100 to 500 nM, respectively.

As to `COc1cc(N2CCC(N3CCCCC3)CC2)c(Cl)cc1Nc1nccc(-c2c(-c3cccc(C(=O)Nc4c(F)cccc4F)c3)nc3ccccn23)n1` [Example 104, 3-[3-(2-{[4-(1,4′-bipiperidin-1′-yl)-5-chloro-2-(methyloxy)phenyl]amino]-4-pyrimidinyl)imidazo[1,2-a]pyridin-2-yl]-N-(2,6-difluorophenyl)benzamide], the IC50 – broadly, the point on the concentration scale where inhibition reaches its midpoint – is 250 to 1000 nM with COLO205 (colon), less than 100 nM in assay [1] and less than 100 nM in assay [2].

`COc1cc(N2CCC(N3CCN(CCF)CC3)CC2)c(Cl)cc1Nc1nccc(-c2c(-c3cccc(C(=O)Nc4c(F)cccc4F)c3)nc3ccccn23)n1` [Example 112, 3-[3-(2-{[5-chloro-4-{4-[4-(2-fluoroethyl)-1-piperazinyl]-1-piperidinyl}-2-(methyloxy)phenyl]amino}-4-pyrimidinyl)imidazo[1,2-a]pyridin-2-yl]-N-(2,6-difluorophenyl)benzamide]: the IC50 in assay [1] and in assay [2] was less than 100 nM in each case.

For the molecule `Cc1cc(OC2CCN(CCS(C)(=O)=O)CC2)ccc1Nc1nccc(-c2c(-c3cccc(C(=O)Nc4c(F)cccc4F)c3)nc3ccccn23)n1` [Example 8, N-(2,6-difluorophenyl)-3-[3-(2-{[2-methyl-4-({1-[2-(methylsulfonyl)ethyl]-4-piperidinyl}oxy)phenyl]amino}-4-pyrimidinyl)imidazo[1,2-a]pyridin-2-yl]benzamide], the IC50 in assay [1] is less than 100 nM; in assay [2], 100 to 500 nM.

For the molecule `CCOc1ccc(-c2nc3ccccn3c2-c2ccnc(Nc3ccc(CCN4CCN(C)CC4)cc3OC)n2)cc1C(=O)Nc1c(F)cccc1F` [Example 133, N-(2,6-difluorophenyl)-2-(ethyloxy)-5-{3-[2-({2-(methyloxy)-4-[2-(4-methyl-1-piperazinyl)ethyl]phenyl}amino)-4-pyrimidinyl]imidazo[1,2-a]pyridin-2-yl}benzamide], the values for the IC50 (with COLO205 (colon); in assay [1]; in assay [2]) were 250 to 1000 nM, less than 100 nM and less than 100 nM, respectively.

With `Cc1cc(OC2CCNCC2)ccc1Nc1nccc(-c2c(-c3cccc(C(=O)Nc4c(F)cccc4F)c3)nc3ccccn23)n1` [Example 6, N-(2,6-difluorophenyl)-3-[3-(2-{[2-methyl-4-(4-piperidinyloxy)phenyl]amino}-4-pyrimidinyl)imidazo[1,2-a]pyridin-2-yl]benzamide], the results for the IC50 in assay [1] and in assay [2] were 100 to 500 nM and more than 500 nM, respectively.

`Cc1cc(OC2CCN(C)CC2)ccc1Nc1nccc(-c2c(-c3cccc(C(=O)Nc4c(F)cccc4F)c3)nc3ccccn23)n1` [Example 7, N-(2,6-difluorophenyl)-3-{3-[2-({2-methyl-4-[(1-methyl-4-piperidinyl)oxy]phenyl}amino)-4-pyrimidinyl]imidazo[1,2-a]pyridin-2-yl}benzamide]: the IC50 in assay [1] is less than 100 nM; in assay [2], more than 500 nM.

As for `COc1cc(N2CCC(N3CCCCC3)CC2)c(C)cc1Nc1nccc(-c2c(-c3cccc(C(=O)Nc4c(F)cccc4F)c3)nc3ccccn23)n1` [Example 108, 3-[3-(2-{[4-(1,4′-bipiperidin-1′-yl)-5-methyl-2-(methyloxy)phenyl]amino]-4-pyrimidinyl)imidazo[1,2-a]pyridin-2-yl]-N-(2,6-difluorophenyl)benzamide], the IC50 in assay [1] and in assay [2] was less than 100 nM throughout.

As to `COc1cc(-c2nnc(CN(C)C)o2)ccc1Nc1nccc(-c2c(-c3cccc(C(=O)Nc4c(F)cccc4F)c3)nc3ccccn23)n1` [Example 27, N-(2,6-difluorophenyl)-3-[3-(2-{[4-{5-[(dimethylamino)methyl]-1,3,4-oxadiazol-2-yl}-2-(methyloxy)phenyl]amino}-4-pyrimidinyl)imidazo[1,2-a]pyridin-2-yl]benzamide], the IC50 is more than 1000 nM in the assay on COLO205 (colon) and more than 500 nM in assay [2].

For `COc1cc(CCN2CCOCC2)c(F)cc1Nc1nccc(-c2c(-c3ccc(OC)c(C(=O)Nc4c(F)cccc4F)c3)nc3ccccn23)n1` [Example 130, N-(2,6-difluorophenyl)-5-{3-[2-({5-fluoro-2-(methyloxy)-4-[2-(4-morpholinyl)ethyl]phenyl}-amino)-4-pyrimidinyl]imidazo[1,2-a]pyridin-2-yl}-2-(methyloxy)benzamide], the IC50 in the assay with COLO205 (colon) was in the range of 250 to 1000 nM; in assay [1], 100 to 500 nM.

Regarding `CN(C)CCOc1cccc(Nc2nccc(-c3c(-c4cccc(C(=O)Nc5c(F)cccc5F)c4)nc4ccccn34)n2)c1` [Example 20, N-(2,6-difluorophenyl)-3-(3-{2-[(3-{[2-(dimethylamino)ethyl]oxy}phenyl)amino]-4-pyrimidinyl}imidazo[1,2-a]pyridin-2-yl)benzamide], the IC50 in the assay on COLO205 (colon) is less than 250 nM; in assay [1], 100 to 500 nM.

As to `COc1cc(N2CCC(N3CCCC(F)(F)C3)CC2)ccc1Nc1nccc(-c2c(-c3cccc(C(=O)Nc4c(F)cccc4F)c3)nc3ccccn23)n1` [Example 75, 3-[3-(2-{[4-(3,3-difluoro-1,4′-bipiperidin-1′-yl)-2-(methyloxy)phenyl]amino]-4-pyrimidinyl)imidazo[1,2-a]pyridin-2-yl]-N-(2,6-difluorophenyl)benzamide], the IC50 in the assay with COLO205 (colon) is 250 to 1000 nM; in assay [1], less than 100 nM.

Regarding `COc1cc(CCN2CCCCC2)c(F)cc1Nc1nccc(-c2c(-c3cccc(C(=O)Nc4c(F)cc(F)cc4F)c3)nc3ccccn23)n1` [Example 129, 3-{3-[2-({5-fluoro-2-(methyloxy)-4-[2-(1-piperidinyl)ethyl]phenyl}amino)-4-pyrimidinyl]imidazo[1,2-a]pyridin-2-yl}-N-(2,4,6-trifluorophenyl)benzamide], the IC50 with COLO205 (colon) is 250 to 1000 nM; in assay [1], 100 to 500 nM.

In the case of `CCc1cc(Nc2nccc(-c3c(-c4ccc(OC)c(C(=O)Nc5c(F)cccc5F)c4)nc4ccccn34)n2)c(OC)cc1N1CCN(CCS(C)(=O)=O)CC1` [Example 187, N-(2,6-difluorophenyl)-5-(3-{2-[(5-ethyl-2-(methyloxy)-4-{4-[2-(methylsulfonyl)ethyl]-1-piperazinyl}phenyl)amino]-4-pyrimidinyl}imidazo[1,2-a]pyridin-2-yl)-2-(methyloxy)benzamide], the IC50 in assay [1] and in assay [2] was less than 100 nM in each case.

`COc1cc(CCN2CCCCC2)c(F)cc1Nc1nccc(-c2c(-c3cccc(C(=O)Nc4c(F)cccc4F)c3)nc3ccccn23)n1` [Example 128, N-(2,6-difluorophenyl)-3-{3-[2-({5-fluoro-2-(methyloxy)-4-[2-(1-piperidinyl)ethyl]phenyl}-amino)-4-pyrimidinyl]imidazo[1,2-a]pyridin-2-yl}benzamide]: the IC50 in the assay with COLO205 (colon) was 250 to 1000 nM; in assay [1], 100 to 500 nM.

Turning to `COc1ccc(N2CCC(N3CCCCC3)CC2)cc1Nc1nccc(-c2c(-c3cccc(C(=O)Nc4c(F)cccc4F)c3)nc3ccccn23)n1` [Example 30, 3-[3-(2-{[5-(1,4′-bipiperidin-1′-yl)-2-(methyloxy)phenyl]amino}-4-pyrimidinyl)imidazo[1,2-a]pyridin-2-yl]-N-(2,6-difluorophenyl)benzamide], the figures for the IC50 (in the assay on COLO205 (colon); in assay [1]) were 250 to 1000 nM and 100 to 500 nM, respectively.

As to `COc1cc(N2CCC(OC)CC2)ccc1Nc1nccc(-c2c(-c3cccc(C(=O)Nc4c(F)cccc4F)c3)nc3ccccn23)n1` [Example 125, N-(2,6-difluorophenyl)-3-{3-[2-({2-(methyloxy)-4-[4-(methyloxy)-1-piperidinyl]phenyl}-amino)-4-pyrimidinyl}imidazo[1,2-a]pyridin-2-yl]benzamide], the IC50 in the assay on COLO205 (colon) was 250 to 1000 nM; in assay [1] it was less than 100 nM.

For `COc1cc(CCN2CCN(C)CC2)ccc1Nc1nccc(-c2c(-c3cccc(C(=O)Nc4c(F)cccc4F)c3)nc3ccccn23)n1` [Example 132, N-(2,6-difluorophenyl)-3-{3-[2-({2-(methyloxy)-4-[2-(4-methyl-1-piperazinyl)ethyl]phenyl}amino)-4-pyrimidinyl]imidazo[1,2-a]pyridin-2-yl}benzamide], the IC50 is 250 to 1000 nM in the assay on COLO205 (colon) and less than 100 nM in assay [1].
